Laboratory results as given in patent US5726159A, “Antithrombotic agents” (Eli Lilly and Company, priority 1995, dated 1998).
Structures can show the parent of a compound that is named as a salt.

Assays:
[1] = biological target: T1, Bovine trypsin (Bos taurus, UniProt P00760); assay: Kass for trypsin, chromogenic substrate; type: biochemical
T1 construct: Bovine trypsin is purchased from Worthington Biochemicals, Freehold, N.J; purchased Worthington Biochemicals, Freehold, N.J
T1 sequence (P00760 24-246): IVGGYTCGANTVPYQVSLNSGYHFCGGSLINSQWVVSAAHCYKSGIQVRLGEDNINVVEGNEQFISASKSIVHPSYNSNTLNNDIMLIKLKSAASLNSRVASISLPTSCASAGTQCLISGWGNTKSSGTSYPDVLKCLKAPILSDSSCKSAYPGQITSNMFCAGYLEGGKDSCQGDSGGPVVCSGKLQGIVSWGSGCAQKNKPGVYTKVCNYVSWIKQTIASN
Procedure: (§1) By substantially following the procedures described above for human thrombin, and using other human blood coagulation system serine proteases and proteases of the fibrinolytic system with the appropriate chromogenic substrates, identified below, selectivity of the compounds of the present invention with respect to the coagulation factor serine proteases and with respect to the fibrinolytic system serine proteases are evaluated as well as their substantial lack of interference with serine proteases of the fibrinolytic system. […] This would be important to the therapeutic use of such agents as an adjunct to streptokinase, t-PA or urokinase thrombolytic therapy and to the use of such agents as an endogenous fibrinolysis-sparing (with respect to t-PA and urokinase) antithrombotic agent. In addition to the lack of interference with the amidase activity of the fibrinolytic proteases, such fibrinolytic system sparing can be studied by the use of human plasma clots and their lysis by the respective fibrinolytic plasminogen activators.
(§2) Chromogenic substrates: N-Benzoyl-Ile-Glu-Gly-Arg-p-nitroanilide (for factor Xa); N-Cbz-D-Arg-Gly-Arg-p-nitroanilide (for factor IXa assay as the factor Xa substrate); Pyroglutamyl-Pro-Arg-p-nitroanilide (for Factor XIa and for aPC); H-D-Pro-Phe-Arg-p-nitroanilide (for factor XIIa); and Pyroglutamyl-Gly-Arg-p-nitroanilide (for urokinase); are purchased from KabiVitrnm, Stockholm, Sweden, or from Midwest Biotech, Fishers, Ind. Bovine trypsin is purchased from Worthington Biochemicals, Freehold, N.J., and human plasma kallikrein from Kabi Vitrum, Stockholm, Sweden. Chromogenic substrate H-D-Pro-Phe-Arg-p-nitroanilide for plasma kallikrein is purchased from Kabi Vitrum, Stockholm, Sweden. N-Benzoyl-Phe-Val-Arg-p-nitroanilide, the substrate for human thrombin and for trypsin, is synthesized according to procedures described above for the compounds of the present invention, using known methods of peptide coupling from commercially available reactants or purchased from Midwest Biotech, Fishers, Ind.

[2] = biological target: human thrombin (Homo sapiens, UniProt P00734); assay: Inhibition of thrombin amidase activity (Kass), chromogenic substrate; type: biochemical; settings: association constant, mean over concentrations
[3] = tested on: Human plasma; assay: Human plasma anticoagulation, thrombin time (TT); type: biochemical; settings: concentration required to double the clotting time
Summary of the method: (§3)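 Values are concentrations estimated by linear extrapolation to double the clotting time in human plasma containing test compound across a wide range. Thrombin time was triggered with bovine thrombin at 10 NIH units/mL plus saline, and prothrombin time with Thromboplastin-C plus saline. For APTT, plasma sat with Actin reagent for 120 seconds before 0.02M CaCl2.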

[4] = biological target: T2, t-PA (Homo sapiens, UniProt P00750); assay: Kass for t-PA, chromogenic substrate; type: biochemical
T2 construct: purchased American Diagnostica, Greenwich, Conn
T2 sequence (P00750 36-562): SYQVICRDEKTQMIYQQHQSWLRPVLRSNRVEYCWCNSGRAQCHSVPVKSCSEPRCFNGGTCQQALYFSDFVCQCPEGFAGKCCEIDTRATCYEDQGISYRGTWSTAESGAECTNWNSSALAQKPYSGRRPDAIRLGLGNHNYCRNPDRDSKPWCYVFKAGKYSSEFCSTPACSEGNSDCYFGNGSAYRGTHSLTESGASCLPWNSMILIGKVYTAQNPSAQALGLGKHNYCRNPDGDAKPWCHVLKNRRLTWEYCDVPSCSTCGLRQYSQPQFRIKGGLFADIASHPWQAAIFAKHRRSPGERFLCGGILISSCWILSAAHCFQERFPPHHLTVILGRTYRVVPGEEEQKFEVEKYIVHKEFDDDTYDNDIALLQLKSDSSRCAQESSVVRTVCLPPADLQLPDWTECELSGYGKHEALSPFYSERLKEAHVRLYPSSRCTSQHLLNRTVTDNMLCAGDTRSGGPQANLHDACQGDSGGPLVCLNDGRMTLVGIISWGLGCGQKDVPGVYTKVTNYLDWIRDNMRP
Procedure: as §1

[5] = biological target: factor Xa (Homo sapiens, UniProt P00742); assay: Kass for factor Xa, chromogenic substrate; type: biochemical
Chain of factor Xa (P00742 235-488 limits assumed): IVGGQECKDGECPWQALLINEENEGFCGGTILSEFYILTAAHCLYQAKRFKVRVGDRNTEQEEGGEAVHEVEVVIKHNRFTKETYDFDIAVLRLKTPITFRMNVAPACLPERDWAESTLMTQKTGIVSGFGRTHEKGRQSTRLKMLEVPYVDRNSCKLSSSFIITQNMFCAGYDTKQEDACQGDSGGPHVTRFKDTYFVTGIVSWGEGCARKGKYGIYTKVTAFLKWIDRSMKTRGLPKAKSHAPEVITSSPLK
Chain of factor Xa (P00742 41-179 partner limits assumed): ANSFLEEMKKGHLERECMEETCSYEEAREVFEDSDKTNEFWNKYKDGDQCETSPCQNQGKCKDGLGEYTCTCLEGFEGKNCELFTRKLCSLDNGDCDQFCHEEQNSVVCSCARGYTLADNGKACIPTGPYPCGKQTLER
Procedure: as §1, §2

[6] = tested on: Human plasma; assay: Human plasma anticoagulation, activated partial thromboplastin time (APTT); type: biochemical; settings: concentration required to double the clotting time
Summary of the method: as §3

[7] = tested on: Human plasma; assay: Human plasma anticoagulation, prothrombin time (PT); type: biochemical; settings: concentration required to double the clotting time
Summary of the method: as §3

[8] = biological target: T3, Human plasmin (Homo sapiens, UniProt P00747); assay: Kass for plasmin, chromogenic substrate; type: biochemical
T3 construct: Human plasmin is purchased from Boehringer Mannheim, Indianapolis, Ind; purchased Boehringer Mannheim, Indianapolis, Ind
T3 sequence (P00747 581-810 limits assumed): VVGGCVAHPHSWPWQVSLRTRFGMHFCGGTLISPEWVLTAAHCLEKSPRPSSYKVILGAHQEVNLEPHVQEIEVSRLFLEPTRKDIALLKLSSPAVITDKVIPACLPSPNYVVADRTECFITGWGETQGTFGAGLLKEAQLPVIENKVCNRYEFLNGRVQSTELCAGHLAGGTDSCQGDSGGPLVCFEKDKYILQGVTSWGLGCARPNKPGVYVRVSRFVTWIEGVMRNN
T3 sequence (P00747 97-580 partner limits assumed): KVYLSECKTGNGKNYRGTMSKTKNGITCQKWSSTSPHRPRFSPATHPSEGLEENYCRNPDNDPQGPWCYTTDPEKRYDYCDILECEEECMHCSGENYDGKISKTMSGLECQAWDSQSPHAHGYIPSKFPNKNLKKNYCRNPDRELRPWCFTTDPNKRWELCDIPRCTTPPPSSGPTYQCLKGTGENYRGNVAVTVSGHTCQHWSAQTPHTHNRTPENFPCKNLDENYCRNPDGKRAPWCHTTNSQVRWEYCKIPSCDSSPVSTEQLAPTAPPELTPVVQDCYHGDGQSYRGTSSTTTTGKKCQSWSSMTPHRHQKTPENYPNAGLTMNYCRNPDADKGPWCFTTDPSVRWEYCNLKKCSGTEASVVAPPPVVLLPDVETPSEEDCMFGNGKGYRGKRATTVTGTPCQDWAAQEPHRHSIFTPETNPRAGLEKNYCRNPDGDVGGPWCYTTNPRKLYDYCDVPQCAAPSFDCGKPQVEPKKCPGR
Procedure: as §1

[9] = Index of bioavailability (% relative activity from plasma TT, oral vs i.v.); type: in vivo; settings: dose-adjusted AUC of plasma TT, p.o. vs i.v.
Procedure: Parke Davis) at 37° C. […] Assays are done in duplicate and averaged. […] Each sample population represented alternating sequential time points.

[10] = tested on: thrombin; settings: Bajusz et al., J. Med. Chem. 1990; cited from earlier work
[11] = Simoons et al., Circulation 1994; cited from earlier work

Kass Trypsin [1]	Kass Human Thrombin [2]	Kass Xa [5]	Kass Plasmin [8]	Compound	2x Clotting time TT [3]	Kass t-PA [4]	2x Clotting time APTT [6]	2x Clotting time PT [7]	% oral/i.v. activity (Rat) [9] [%]	direct inhibition of thrombin [10]	anticoagulant activity in man [11]
21 × 10^6 (L/mole)	770 × 10^6 (L/mole)	0.14 × 10^6 (L/mole)	0.44 × 10^6 (L/mole)	EtSO2 -D-Phe-Pro-p-NHCH2 -C6 H4 C(=NH)NH2.HCl [Example 23]	7 ng/mL	0.31 × 10^6 (L/mole)	86 ng/mL	120 ng/mL	–	–	–
8.5 × 10^6 (L/mole)	3.0 × 10^6 (L/mole)	0.043 × 10^6 (L/mole)	0.042 × 10^6 (L/mole)	D-hPro-Pro(4-cis-PhO)-p-NHCH2 -C6 H4 C(NH)NH2.2HCl [Example 22]	170 ng/mL	0.004 × 10^6 (L/mole)	2,300 ng/mL	1,000 ng/mL	–	–	–
570. × 10^6 (L/mole)	4,500 × 10^6 (L/mole)	–	–	HO2 CCH2 -D-Cha-Pro-4-NHCH2 -2-amidinothiophene.HCl [Example 65]	1 ng/mL	–	48 ng/mL	–	–	–	–
–	–	–	–	CCS(=O)(=O)N[C@H](Cc1ccccc1)C(=O)N1CCC[C@H]1C(=O)NCCCCNC(=N)N [Example 1, EtSO2 -D-Phe-Pro-Agm.HCl]	250 ng/mL	0.082	–	–	8	–	–
–	–	< 0.009 × 10^6 (L/mole)	–	CCS(=O)(=O)N[C@H](Cc1ccccc1)C(=O)N1CCC[C@H]1C(=O)NCCc1cccc(NC(=N)N)c1 [Example 37, EtSO2 -D-Phe-Pro-m-NHCH2 CH2 C6 H4 NHC(NH)NH2.HCl]	> 9,000 ng/mL	–	> 9,000 ng/mL	> 9,000 ng/mL	–	–	–
–	–	–	–	CN[C@H](Cc1ccccc1)C(=O)N1CCC[C@H]1C(=O)N[C@H](C=O)CCCNC(=N)N [D-MePhe-Pro-Arg-H]	–	–	–	–	–	potent direct inhibition of thrombin	–
–	–	–	–	CC(C)(C)OC(=O)N[C@H](Cc1ccccc1)C(=O)N1CCC[C@H]1C(=O)N[C@H](C=O)CCCNC(=N)N [Boc-D-Phe-Pro-Arg-H]	–	–	–	–	–	potent direct inhibition of thrombin	–
–	13. × 10^6 (L/mole)	–	–	NMI-D-Phe-Pro-Agm.HCl [Example 4]	230 ng/mL	–	–	–	–	–	–
0.96 × 10^6 (L/mole)	3.6 × 10^6 (L/mole)	0.62 × 10^6 (L/mole)	0.031 × 10^6 (L/mole)	D-hPro-N(PhCH2 CH2)Gly-p-NHCH2 -C6 H4 C(NH)NH2.2HCl [Example 21]	160 ng/mL	0.002 × 10^6 (L/mole)	2,000 ng/mL	1,000 ng/mL	–	–	–
–	–	–	–	N=C(N)NCCC[C@@H](C=O)NC(=O)[C@@H]1CCCN1C(=O)[C@H](N)Cc1ccccc1 [D-Phe-Pro-Arg-H]	–	–	–	–	–	potent direct inhibition of thrombin	–
–	–	–	–	CN[C@H](Cc1ccccc1)C(=O)N1CCC[C@H]1C(=O)N[C@H](C=O)CCCNC(=N)N.O=S(=O)(O)O [D-MePhe-Pro-Arg-H sulfate]	–	–	–	–	–	–	anticoagulant in man

Compound	Kass Trypsin [1]	Kass Human Thrombin [2]	Kass Xa [5]	Kass Plasmin [8]	2x Clotting time TT [3]	Kass t-PA [4]	2x Clotting time APTT [6]	2x Clotting time PT [7]	% oral/i.v. activity (Rat) [9] [%]	direct inhibition of thrombin [10]	anticoagulant activity in man [11]
N=C(N)c1ccc(CNC(=O)[C@@H]2C[C@@H]3CCCC[C@@H]3N2C(=O)[C@@H]2NCC[C@@H]3CCCC[C@@H]32)cc1 (relative stereo) [Example 42, D-1-Piq-cis-Ohi-p-NHCH2 C6 H4 C(NH)NH2.2HCl]	43. × 10^6 (L/mole)	38. × 10^6 (L/mole)	–	–	20 ng/mL	0.01 × 10^6 (L/mole)	270 ng/mL	320 ng/mL	–	–	–
CCS(=O)(=O)N[C@H](Cc1ccccc1)C(=O)N1CCC[C@H]1C(=O)NCCc1ccc(C(=N)N)cc1 [Example 26, EtSO2 -D-Phe-Pro-p-NHCH2 CH2 -C6 H4 C(=NH)NH2.HCl]	–	13. × 10^6 (L/mole)	–	–	37 ng/mL	0.01 × 10^6 (L/mole)	870 ng/mL	750 ng/mL	–	–	–
EtSO2 -Phg-cis-Ohi-p-NHCH2 C6 H4 C(NH)NH2.HCl [Example 44]	–	–	0.66	1.8	4. ng/mL	0.04	100 ng/mL	170 ng/mL	–	–	–
